{"source": "patent US11912693B2", "about": "“Compounds for modulating S1P1 activity and methods of using the same” (TREVENA, INC., priority 2017, dated 2024)", "system": "oxaliplatin induced peripheral neuropathy", "test": "Reversal of allodynia induced by oxaliplatin in mice (von Frey frequency method)", "assay_type": "in vivo, c57bl/6 mice", "details": "tested 30 min after dosing", "method": "Compounds were tested for efficacy in mouse models of chemotherapy induced peripheral neuropathy. […] For these studies […]/6 mice are habituated to the test environment and baseline measurements of pain sensitivity are assessed. To determine mechanical responses, the threshold for responses to punctate mechanical stimuli (mechanical hyperalgesia) was tested according to the frequency method. In brief, the plantar surface of the animal hindpaw was stimulated with a single von Frey monofilament (0.4 g) for approximately 1-2 seconds. If there was a withdrawal response, it was recorded as a positive response. A response was defined as a lifting or shaking of the paw upon stimulation. This was repeated ten times for each mouse. The final measurement for each mouse is the % non-response to stimulation for the ten trials. The % non-response to stimulation is converted to a % MPE. For paclitaxel induced peripheral neuropathy, a series of injections of PAC (6 mg/kg, i.p.) on days 1, 3, 5 and 7 is used to induce peripheral neuropathy. After approximately 14 days from the initiation of PAC injections, animals are re-assessed for mechanical sensitivity. […] On test day animals are dosed with compounds either subcutaneously or orally and tested for mechanical response by the frequency method either 30 min (s.c.) or 60 min (p.o.) after drug administration. Data is presented as a % MPE. For oxaliplatin induced peripheral neuropathy, a series of injections of OXA (4 mg/kg, i.p.) on days 1-5 is used to induce peripheral neuropathy. After approximately 14 days from the initiation of PAC injections, animals are re-assessed for mechanical sensitivity. […] On test day animals are dosed with compounds subcutaneously and tested for mechanical response by the frequency method 30 min after drug administration. Data is presented as a % MPE. One or more of the compounds show reversal of chemotherapeutic induced peripheral neuropathy.", "data": [{"molecule": "COc1ccccc1-c1nc(-c2ccc3c(c2)nnn3C(C)C)no1", "note": "[Compound 287, 3-(1-isopropyl-1H-benzo[d][1,2,3]triazol-5-yl)-5-(2-methoxyphenyl)-1,2,4-oxadiazole]", "values": [{"measurement": "Screen @ 3 mg/kg sc (% MPE)", "value": ">50", "unit": "% MPE"}]}]}
